We go through 17 molecules from patent publication US10538528B2, “5H-pyrrolo[2,3-D]pyrimidin-6(7H)-one derivative” (Taiho Pharmaceutical Co., Ltd., priority 2016, dated 2020).

pIC50: −log10 of the molar value.

Common to all, as to type: biochemical
One assay has as its target Rsk1 (Homo sapiens (Human), UniProt Q15418). Nature of the assay: Inhibitory effects on Rsk1 kinase activity (QSS Assist FP assay kit). Conditions: Rsk1, ATP 30 μM; read-out: Rsk inhibitory activity IC50. The method, then: Inhibitory activity of the compound according to the present invention on Rsk1 kinase activity in vitro was assayed using the QSS Assist™ FP assay kit (Carna Biosciences, Inc.).
In the inhibition assay of inhibitory activity of the compound, the test compound was diluted by serial dilution with dimethyl sulfoxide (DMSO). Subsequently, an Rsk1 protein, a substrate peptide (final concentration: 100 nM), magnesium chloride (final concentration: 10 mM), ATP (final concentration: 30 μM), and the solution of the test compound in DMSO (DMSO final concentration: 5%) were added to the kinase reaction buffer (20 mM HEPES (pH 7.4), 2 mM dithiothreitol, 0.01% Tween-20), and the mixture was incubated at 25° C. for 40 minutes to perform the kinase reaction. The IMAP Progressive Binding Reagent diluted to 400-fold with the IMAP Progressive Binding Buffer A (Molecular Devices, LLC) was added to terminate the kinase reaction.

For another assay, the target named is S6K1 (Homo sapiens (Human), UniProt P23443). Nature of the assay: Inhibitory effects on S6K1 kinase activity (QSS Assist FP assay kit). Conditions: S6K1, ATP 25 μM; read-out: S6K inhibitory activity IC50. The method, then: Inhibitory activity of the compound according to the present invention on S6K1 kinase activity in vitro was assayed using the QSS Assist™ FP assay kit (Carna Biosciences, Inc.).
Sequence of S6K1 (P23443 whole entry): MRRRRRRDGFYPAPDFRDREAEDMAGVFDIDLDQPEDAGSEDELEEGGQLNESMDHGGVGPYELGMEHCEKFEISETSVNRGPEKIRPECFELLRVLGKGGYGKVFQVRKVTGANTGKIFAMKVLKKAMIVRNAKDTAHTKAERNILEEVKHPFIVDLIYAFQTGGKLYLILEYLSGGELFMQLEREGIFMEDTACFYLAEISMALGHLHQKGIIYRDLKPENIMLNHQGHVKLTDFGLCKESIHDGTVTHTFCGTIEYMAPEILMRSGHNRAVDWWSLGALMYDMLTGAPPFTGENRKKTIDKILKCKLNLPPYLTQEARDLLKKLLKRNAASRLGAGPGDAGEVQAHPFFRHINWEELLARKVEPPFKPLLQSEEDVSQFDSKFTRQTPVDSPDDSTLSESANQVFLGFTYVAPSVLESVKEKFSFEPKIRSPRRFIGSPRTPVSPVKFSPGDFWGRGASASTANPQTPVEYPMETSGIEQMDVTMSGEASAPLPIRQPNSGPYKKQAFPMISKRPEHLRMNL
In the inhibition assay for inhibitory activity of the compound, the test compound was diluted by serial dilution with dimethyl sulfoxide (DMSO). Subsequently, an S6K protein, a substrate peptide (final concentration: 100 nM), magnesium chloride (final concentration: 5 mM), ATP (final concentration: 25 μM), and the solution of the test compound in DMSO (final DMSO concentration: 5%) were added to the kinase reaction buffer (20 mM HEPES (pH 7.4), 2 mM dithiothreitol, 0.01% Tween-20), and the mixture was incubated at 25° C. for 30 minutes to perform the kinase reaction. The IMAP Progressive Binding Reagent diluted to 400-fold with the IMAP Progressive Binding Buffer A (Molecular Devices, LLC) was added thereto to terminate the kinase reaction. The reaction product was allowed to stand at room temperature in the dark for 120 minutes and assayed with the use of PHERAstar (BMG LABTECH; excitation wavelength: 485 nm; detection wavelength: 520 nm). The level of phosphorylation reaction was determined based on the degree of fluorescence polarization, and the concentration of the compound at which phosphorylation could be inhibited by 50% was defined as the IC50 level (nM) and shown in Table 4.

Another assay has as its target human Akt1 (Homo sapiens (Human), UniProt P31749). Nature of the assay: Inhibitory effects on Akt1 kinase activity (TR-FRET, biotinylated Crosstide). Conditions: Akt1, ATP 150 μM, pre-incubation 120 minutes at 25° C.; read-out: AKT inhibitory activity IC50. The method, then: Akt1 was prepared and assays of inhibitory activity of the compound according to the present invention against Akt1 kinase activity in vitro were conducted according to the method described in Biochem. J., vol. 385, pp. 399-408, 2005 and Cancer Res., vol. 68, pp. 2366-2374, 2008. In the preparation of Akt1 protein, human Akt1 tagged with the middle T antigen was expressed in an insect cell Sf9, Akt1 was prepared through affinity purification and activation by PDK1, and the resultant was stored at −80° C. until the inhibition assays of the compounds. In the inhibition assay of the compounds, Akt1 and the compound according to the present invention were subjected to pre-incubation at 25° C. for 120 minutes in a reaction buffer (15 mM Tris-HCl, pH 7.5, 0.01% Tween-20, 2 mM DTT). Subsequently, biotinylated Crosstide (biotin-[…], Millipore), MgCl2, and ATP were added as substrates at the final concentration of 500 nM, 10 mM, and 150 μM, respectively, and the reaction was allowed to proceed at 25° C. for 60 minutes. EDTA was added to the final concentration of 40 mM to terminate the reaction, a detection liquid containing the Eu-anti-phospho-Crosstide antibody (PerkinElmer) and SureLight APC-SA (PerkinElmer) at the final concentration of 0.5 nM and 62.5 nM, respectively was added, and the reaction was allowed to proceed at room temperature for 2 hours. In the end, the fluorescence levels irradiated with an excitation light of 337 nm were assayed at two different wavelength levels (i.e., 620 nm and 665 nm) using PI-HERAstar FS (BMG LABTECH) or PHERAstar (BMG LABTECH). The level of the phosphorylation reaction was determined on the basis of the ratio of fluorescence levels at two wavelength levels, and the concentration of the compound at which phosphorylation could be inhibited by 50% was defined as the IC50 level (nM) and shown in Table 2.
As reference compounds, conventional Comparative Example A (WO 2010/056563 (Example 31)) and Comparative Example B having inhibitory activity against Akt were used.

Sequence of human Akt1 (P31749 whole entry): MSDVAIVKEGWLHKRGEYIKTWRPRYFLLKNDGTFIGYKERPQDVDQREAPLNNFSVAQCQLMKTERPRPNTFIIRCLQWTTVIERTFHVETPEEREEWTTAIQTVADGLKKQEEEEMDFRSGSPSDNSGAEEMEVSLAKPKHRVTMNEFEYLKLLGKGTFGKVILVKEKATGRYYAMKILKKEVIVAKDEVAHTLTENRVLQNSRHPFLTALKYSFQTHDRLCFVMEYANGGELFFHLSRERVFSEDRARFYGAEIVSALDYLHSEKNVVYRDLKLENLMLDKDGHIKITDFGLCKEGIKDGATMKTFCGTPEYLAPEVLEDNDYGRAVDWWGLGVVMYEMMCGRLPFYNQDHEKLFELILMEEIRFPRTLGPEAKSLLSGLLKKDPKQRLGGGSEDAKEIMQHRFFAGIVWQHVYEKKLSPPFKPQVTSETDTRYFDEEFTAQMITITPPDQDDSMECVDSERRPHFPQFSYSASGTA
Sequence of Rsk1 (Q15418 whole entry): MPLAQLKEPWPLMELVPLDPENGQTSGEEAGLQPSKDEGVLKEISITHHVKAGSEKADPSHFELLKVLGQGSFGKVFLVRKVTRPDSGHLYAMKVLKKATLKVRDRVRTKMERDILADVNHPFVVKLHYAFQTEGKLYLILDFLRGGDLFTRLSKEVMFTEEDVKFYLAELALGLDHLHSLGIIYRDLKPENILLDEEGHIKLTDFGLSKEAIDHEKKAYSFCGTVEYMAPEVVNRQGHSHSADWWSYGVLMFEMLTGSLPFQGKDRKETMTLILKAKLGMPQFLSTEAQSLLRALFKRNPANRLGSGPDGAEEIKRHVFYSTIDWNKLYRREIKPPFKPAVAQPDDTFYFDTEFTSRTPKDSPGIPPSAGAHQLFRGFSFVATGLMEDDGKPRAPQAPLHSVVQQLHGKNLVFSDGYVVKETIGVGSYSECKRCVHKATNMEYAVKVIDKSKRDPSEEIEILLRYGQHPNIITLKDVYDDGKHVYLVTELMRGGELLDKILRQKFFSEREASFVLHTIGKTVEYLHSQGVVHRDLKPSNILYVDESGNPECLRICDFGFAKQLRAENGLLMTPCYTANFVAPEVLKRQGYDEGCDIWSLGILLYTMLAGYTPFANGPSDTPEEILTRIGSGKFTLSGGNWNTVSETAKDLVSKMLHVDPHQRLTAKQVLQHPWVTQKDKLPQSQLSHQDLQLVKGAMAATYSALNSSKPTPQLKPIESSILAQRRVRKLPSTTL

For `CC1(C)C(=O)Nc2ncnc(N3CCC(c4nc(-c5ccc(F)nc5)ccc4NCCN4CCCC4)CC3)c21` [Compound 2, 4-(4-(6′-Fluoro-5-((2-(pyrrolidin-1-yl)ethyl)amino)-[2,3′-bipyridin]-6-yl)piperidin-1-yl)-5,5-dimethyl-5H-pyrrolo[2,3-d]pyrimidin-6(7H)-one], the pIC50 was 8.82 on Rsk1 and 9.52 at S6K1.

With `Cc1cc(-c2ccc(NCCN3CCCC3)c(C3CCN(c4ncnc5c4C(C)(C)C(=O)N5)CC3)n2)n(C)n1` [Compound 3, 4-(4-(6-(1,3-Dimethyl-1H-pyrazol-5-yl)-3-((2-(pyrrolidin-1-yl)ethyl)amino)pyridin-2-yl)piperidin-1-yl)-5,5-dimethyl-5H-pyrrolo[2,3-d]pyrimidin-6(7H)-one], the pIC50 at S6K1 is 9.40.

As for `CC(C)(C)NCCNc1ccc(-c2cnn(C(F)F)c2)nc1C1CCN(c2ncnc3c2C(C)(C)C(=O)N3)CC1` [Compound 4], the pIC50 at S6K1 was 9.40.

Regarding `CC(C)NCCNc1ccc(-c2cnc(F)c(F)c2)nc1C1CCN(c2ncnc3c2C(C)(C)C(=O)N3)CC1` [Compound 5, 4-(4-(5′,6′-Difluoro-5-((2-(isopropylamino)ethyl)amino)-[2,3′-bipyridin]-6-yl)piperidin-1-yl)-5,5-dimethyl-5H-pyrrolo[2,3-d]pyrimidin-6(7H)-one], the results for the pIC50 on Rsk1, at human Akt1 and on S6K1 were 9.15, 8.46 and 9.52, respectively.

Take `Cc1nc(C)c(-c2ccc(NCCNC(C)C)c(C3CCN(c4ncnc5c4C(C)(C)C(=O)N5)CC3)n2)s1` [Compound 6, 4-(4-(6-(2,4-Dimethylthiazol-5-yl)-3-((2-(isopropylamino)ethyl)amino)pyridin-2-yl)piperidin-1-yl)-5,5-dimethyl-5H-pyrrolo[2,3-d]pyrimidin-6(7H)-one]: the pIC50 on Rsk1 is 9.00; on S6K1, 9.40.

As for `COc1cncc(-c2ccc(NCCN3CCCC3)c(C3CCN(c4ncnc5c4C(C)(C)C(=O)N5)CC3)n2)c1` [Compound 7, 4-(4-(5′-Methoxy-5-((2-(pyrrolidin-1-yl)ethyl)amino)-[2,3′-bipyridin]-6-yl)piperidin-1-yl)-5,5-dimethyl-5H-pyrrolo[2,3-d]pyrimidin-6(7H)-one], the pIC50 is 8.77 at Rsk1 and 9.52 at S6K1.

On to `CC1(C)C(=O)Nc2ncnc(N3CCC(c4nc(-c5cncc(F)c5)ccc4NCCN4CCCC4)CC3)c21` [Compound 8, 4-(4-(5′-Fluoro-5-((2-(pyrrolidin-1-yl)ethyl)amino)-[2,3′-bipyridin]-6-yl)piperidin-1-yl)-5,5-dimethyl-5H-pyrrolo[2,3-d]pyrimidin-6(7H)-one], for which the pIC50 at Rsk1 is 8.77; on S6K1, 9.52.

Take `CN(C)CCNc1ccc(-c2cc(Cl)nn2C)nc1C1CCN(c2ncnc3c2C(C)(C)C(=O)N3)CC1` [Compound 9, 4-(4-(6-(3-Chloro-1-methyl-1H-pyrazol-5-yl)-3-((2-(dimethylamino)ethyl)amino)pyridin-2-yl)piperidin-1-yl)-5,5-dimethyl-5H-pyrrolo[2,3-d]pyrimidin-6(7H)-one]: the pIC50 on Rsk1 was 8.96; at S6K1, 9.52.

For `CC(C)NCCNc1ccc(-c2cc(C(F)(F)F)nn2C)nc1C1CCN(c2ncnc3c2C(C)(C)C(=O)N3)CC1` [Compound 10, 4-(4-(3-((2-(Isopropylamino)ethyl)amino)-6-(1-methyl-3-(trifluoromethyl)-1H-pyrazol-5-yl)pyridin-2-yl)piperidin-1-yl)-5,5-dimethyl-5H-pyrrolo[2,3-d]pyrimidin-6(7H)-one], the pIC50 at Rsk1 is 9.05; on S6K1, 9.52.

As to `CCNCCNc1ccc(-c2cncc(F)c2)nc1C1CCN(c2ncnc3c2C(C)(C)C(=O)N3)CC1` [Compound 12, 4-(4-(5-((2-(Ethylamino)ethyl)amino)-5′-fluoro[2,3′-bipyridin]-6-yl)piperidin-1-yl)-5,5-dimethyl-5H-pyrrolo[2,3-d]pyrimidin-6(7H)-one], the pIC50 on Rsk1 was 8.74; on S6K1, 9.52.

With `Cc1ncccc1-c1ccc(NCCN2CCCC2)c(C2CCN(c3ncnc4c3C(C)C(=O)N4)CC2)n1` (stereo not shown) [Compound 22, 5-Methyl-4-(4-(2′-methyl-5-((2-(pyrrolidin-1-yl)ethyl)amino)-[2,3′-bipyridin]-6-yl)piperidin-1-yl)-5H-pyrrolo[2,3-d]pyrimidin-6(7H)-one], the pIC50 at human Akt1 was 8.74.

On to `CC1C(=O)Nc2ncnc(N3CCC(c4nc(-c5ncco5)ccc4NCCN4CCCC4)CC3)c21` (stereo not shown) [Compound 25, 5-Methyl-4-(4-(6-(oxazol-2-yl)-3-((2-(pyrrolidin-1-yl)ethyl)amino)pyridin-2-yl)piperidin-1-yl)-5H-pyrrolo[2,3-d]pyrimidin-6(7H)-one], for which the pIC50 on human Akt1 was 8.57.

For the molecule `CC(C)NCCNc1cc(F)c(-c2cncc(F)c2)nc1C1CCN(c2ncnc3c2C(C)(C)C(=O)N3)CC1` [Compound 28, 4-(4-(3,5′-Difluoro-5-((2-(isopropylamino)ethyl)amino)-[2,3′-bipyridin]-6-yl)piperidin-1-yl)-5,5-dimethyl-5H-pyrrolo[2,3-d]pyrimidin-6(7H)-one], the pIC50 at S6K1 was 9.52.

On to `CC1C(=O)Nc2ncnc(N3CCN(c4nc(-c5cncc(F)c5)ccc4NCCN(C)C)CC3)c21` (stereo not shown) [Compound 29, 4-(4-(5-((2-(Dimethylamino)ethyl)amino)-5′-fluoro-[2,3′-bipyridin]-6-yl)piperazin-1-yl)-5-methyl-5H-pyrrolo[2,3-d]pyrimidin-6(7H)-one], for which the pIC50 at S6K1 was 9.10.

On to `CC1(C)C(=O)Nc2ncnc(N3CCC(c4nc(-c5nnc(C(F)(F)F)o5)ccc4NC[C@@H]4CCCN4)CC3)c21` [Compound 35, (S)-5,5-Dimethyl-4-(4-(3-((pyrrolidin-2-yl-methyl)amino)-6-(5-(trifluoromethyl)-1,3,4-oxadiazol-2-yl)pyridin-2-yl)piperidin-1-yl)-5H-pyrrolo[2,3-d]pyrimidin-6(7H)-one], for which the results for the pIC50 at Rsk1 and at S6K1 were 8.82 and 9.40, respectively.

For the molecule `Cc1nnc(-c2ccc(NCCN3CCCC3)c(C3CCN(c4ncnc5c4C(C)(C)C(=O)N5)CC3)n2)s1` [Compound 36, 5,5-Dimethyl-4-(4-(6-(5-methyl-1,3,4-thiadiazol-2-yl)-3-((2-(pyrrolidin-1-yl)ethyl)amino)pyridin-2-yl)piperidin-1-yl)-5H-pyrrolo[2,3-d]pyrimidin-6(7H)-one], the pIC50 at S6K1 is 9.40.

Consider `CN(C)CCNc1ccc(-c2nnc(C(F)F)s2)nc1C1CCN(c2ncnc3c2C(C)(C)C(=O)N3)CC1` [Compound 38, 4-(4-(6-(5-(Difluoromethyl)-1,3,4-thiadiazol-2-yl)-3-((2-(dimethylamino)ethyl)amino)pyridin-2-yl)piperidin-1-yl)-5,5-dimethyl-5H-pyrrolo[2,3-d]pyrimidin-6(7H)-one], for which the figures for the pIC50 at Rsk1 and on S6K1 were 9.05 and 9.52, respectively.
